Test results from paper PMC11351458, “Bioaffinity Ultrafiltration Combined with HPLC-ESI-qTOF-MS/MS for Screening Potential Bioactive Components from the Stems of Dendrobium fimbriatum and In Silico Analysis” (Antioxidants, 2024).
Read-outs that look alike come from different tables or passages of the source. Marks after values point to notes of the source that are not given here.

Legend:
[1] = molecular target: T1, inducible nitric oxide synthase (iNOS) (Mus musculus, UniProt P29477); experiment: Bioaffinity ultrafiltration assay with inducible nitric oxide synthase; type: binding; conditions: components of EtOAc extract; EF = (A1 − A2)/A0 × 100%
T1 construct: purchased Sigma-Aldrich (St. Louis, MO, USA)
Procedure: (§1) The bioaffinity ultrafiltration assay was conducted using a previously described procedure. […] The reaction was conducted at 37 °C for 30 min, then centrifuged using a 14,000× g ultracentrifuge filter at 30 °C for 15 min. The filtrate was removed and 200 μL of Tris-HCl buffer was added to the ultracentrifuge filter and centrifuged at 14,000× g for 15 min at 30 °C. The previous step was repeated 3 times and the filtrate was removed. Then, 200 μL of methanol was added to the ultracentrifuge filter and centrifuged at 14,000× g for 15 min at 30 °C. The previous step was repeated 3 times and the filtrate was collected. The filtrate was concentrated and then dissolved in 50 μL MeOH for HPLC analysis. In addition, the processing of iNOS-ligand complexes was conducted following previously reported methods, while inducible nitric oxide synthase bioaffinity ultrafiltration assays were performed, as detailed above.
(§2) The binding affinity of compounds and enzymes using enrichment factor (EF) was assessed, and was counted as follows: A1, A2, and A0 represent the peak areas of picked compounds acquired from the extracts incubated with activated, inactivated, and no acetylcholinesterase, respectively. EF (%) = (A1 − A2)/A0 × 100%

[2] = molecular target: T2, acetylcholinesterase (AChE) (Electrophorus electricus, UniProt O42275); experiment: Bioaffinity ultrafiltration assay with acetylcholinesterase; type: binding; conditions: components of EtOAc extract; EF = (A1 − A2)/A0 × 100%
T2 construct: purchased Sigma-Aldrich (St. Louis, MO, USA)
Procedure: as §1, §2

[3] = DPPH radical scavenging activity; conditions: 50% free radical scavenging; for EC50: isolated components, read-out: SC50 DPPH
Procedure: The DPPH radical scavenging effect was measured based on the reported method. BHT was applied as a positive control. DPPH solution was prepared diluted by EtOH to reach the final concentration of 400 µM. Different concentrations (400, 200, 100, 50, and 25 µg/mL) of extracts or compounds (100 µL) were mixed with DPPH solution (100 µL) and incubated for 30 min at room temperature and in darkness, and the absorbance of the mixture was measured at 520 nm.

[4] = Ferric reducing antioxidant power (FRAP); conditions: mM Trolox equivalents per g
Procedure: FRAP was measured by the method reported in the previous literature. The working solution was mixed with acetate buffer (pH 3.6), ferric chloride solution (20 mM), and TPTZ solution (10 mM TPTZ in 40 mM HCl) at a proportion of 10:1:1, respectively, and freshly prepared before being used. A total of 900 μL of the working solution was warmed to 37 °C and then mixed with 100 μL of the diluted sample, blank or standard, in a microcentrifuge tube. The tubes were vortexed in a dry bath at 37 °C for 40 min. The absorbance was measured at 593 nm. The standard curve was linear between 0 and 100 mM Trolox. Results were expressed as mM TE/g dry weight. Additional dilution was needed if the FRAP value measured was over the linear range of the standard curve.

[5] = ABTS cation radical scavenging activity; conditions: 50% free radical scavenging; for EC50: isolated components, read-out: SC50 ABTS
Procedure: The ABTS cation radical scavenging effect was measured, as previously described by. […] The working solution was diluted by EtOH to reach the absorbance of 0.70 ± 0.02 at 740 nm for further experiments. Different concentrations (400, 200, 100, 50, and 25 µg/mL) of extracts or compounds (10 µL) were mixed with the working solution (190 μL). The mixture was incubated at room temperature for 6 min, and the antioxidant activity of the mixture was determined by the decrease in absorbance measured at 740 nm.

[6] = Superoxide radical scavenging activity; conditions: 50% free radical scavenging; for EC50: isolated components, read-out: SC50 Superoxide
Procedure: A superoxide radical scavenging assay was performed based on previously reported methods. The superoxide radical was generated in 16 mM Tris-HCl buffer (pH 8.0) containing 50 μL of NBT (300 μM), 50 μL of PMS (120 μM), and 50 μL of different concentrations of the test sample. The reaction was initiated by adding 50 μL of NADH (468 μM) solution to the mixture. After incubating at room temperature for 5 min, the activity of samples was determined by the decrease in absorbance measured at 560 nm against the sample concentration.

[7] = system: NO production in RAW 264.7 cells; experiment: Nitric oxide (NO) inhibition assay; type: cell-based, murine; conditions: Mus musculus
Procedure: In this experiment, the RAW 264.7 macrophage cell line was used. The cells were stored at −196 °C in liquid nitrogen. After thawing, the cells were cultured in DMEM at 37 °C and 5% CO2 supplemented with 10% FBS, […] L-glutamine, 1 mM sodium pyruvate, 100 μg/mL streptomycin, and 100 U/mL penicillin.
NO inhibition assay was slightly modified from the reported method. The day before the experiment, RAW 264.7 cells were seeded into 96-well plates with 2 × 10^4 cells per well. The cells were pretreated with the sample solution, and then incubated at 37 °C for 1 h. After incubation, the cells were treated with 100 ng/mL of LPS to induce an inflammatory response. After incubation at 37 °C for 20 h, 50 μL of the supernatant was transferred from each well to another 96-well plate and mixed with an equal volume of Griess reagent. Finally, the absorbance was acquired at 550 nm after 20 min of incubation.

[8] = molecular target: T2, acetylcholinesterase (AChE); experiment: biochemical
Procedure: The acetylcholinesterase inhibitory assay was carried out applying a method described in reference. Briefly, 0.1 M sodium phosphate buffer (pH 8.0, 140 μL), DTNB (10 μL), sample (20 μL), and AChE solution (15 μL) were added to a 96-well microplate and incubated at room temperature for 10 min. Finally, the absorbance was detected with a spectrophotometer at 405 nm.
The acetylcholinesterase inhibitory effect was counted as follows (Asample and Acontrol represent the absorbance of the tested sample and control, respectively):Acetylcholinesterase inhibitory activity (%) = (Acontrol − Asample)/Acontrol × 100%

[9] = molecular target: α-glucosidase; experiment: α-Glucosidase inhibitory activity assay; type: biochemical; conditions: isolated compounds
Procedure: To test the anti-α-glucosidase effect of each solvent extract and each component, a previously described method was used. […] The α-glucosidase solution was diluted to 1 U/mL with 0.1 M sodium phosphate buffer (pH 6.8). Various concentrations of extract or compound (100 µL) and α-glucosidase solution (20 µL) were mixed. Subsequently, 0.53 mM p-NPG (380 µL) was added and incubated at 37 °C for 40 min. The reaction was stopped by adding 500 μL of 0.1 M Na2CO3 solution, and the absorbance was detected at 405 nm.
α-glucosidase inhibition (%) was counted as follows (Asample and Acontrol represent the absorbance of the tested sample and control, respectively):α-glucosidase inhibition (%) = (Acontrol − Asample)/Acontrol × 100%

[10] = system: LPS-induced iNOS expression in RAW 264.7 murine macrophages; experiment: Western blotting of LPS-induced iNOS expression; type: cell-based; conditions: 50 μM; LPS-induced RAW 264.7; Western blot
Procedure: Western blotting was conducted with the previous procedure. Cells were treated with different concentrations of compounds and 100 ng/mL of LPS for a day. After rinsing cells with cold PBS, proteins were harvested with radioimmunoprecipitation assay buffer (RIPA buffer) and stored at −20 °C for succeeding procedure. Proteins were separated on a 12.5% SDS-polyacrylamide gel and then electrophoretically transferred to a PVDF membrane. The membrane was soaked in 2% bovine serum albumin (BSA) blocking buffer for 2 h, then washed 2–3 times with TBST. Proteins were treated by particular primary antibodies and immersed overnight. The following day, PVDF membranes were washed with TBST to remove residual primary antibodies, and then immersed with secondary antibodies for 2 h. Then, enhanced chemiluminescence solution was coated on the membrane and visualized using an ImageQuant LAS 4000 Mini Biomolecular Imager (GE Healthcare, Marlborough, MA, USA). Finally, we quantified band density by ImageJ software 1.53a (BioTechniques, New York, NY, USA).

[11] = RAW264.7, isolated components, LPS-treated RAW 264.7 cells, read-out: NO Inhibition IC50
[12] = isolated compounds, read-out: IC50 AChE (converted)

T2 sequence (O42275 24-633): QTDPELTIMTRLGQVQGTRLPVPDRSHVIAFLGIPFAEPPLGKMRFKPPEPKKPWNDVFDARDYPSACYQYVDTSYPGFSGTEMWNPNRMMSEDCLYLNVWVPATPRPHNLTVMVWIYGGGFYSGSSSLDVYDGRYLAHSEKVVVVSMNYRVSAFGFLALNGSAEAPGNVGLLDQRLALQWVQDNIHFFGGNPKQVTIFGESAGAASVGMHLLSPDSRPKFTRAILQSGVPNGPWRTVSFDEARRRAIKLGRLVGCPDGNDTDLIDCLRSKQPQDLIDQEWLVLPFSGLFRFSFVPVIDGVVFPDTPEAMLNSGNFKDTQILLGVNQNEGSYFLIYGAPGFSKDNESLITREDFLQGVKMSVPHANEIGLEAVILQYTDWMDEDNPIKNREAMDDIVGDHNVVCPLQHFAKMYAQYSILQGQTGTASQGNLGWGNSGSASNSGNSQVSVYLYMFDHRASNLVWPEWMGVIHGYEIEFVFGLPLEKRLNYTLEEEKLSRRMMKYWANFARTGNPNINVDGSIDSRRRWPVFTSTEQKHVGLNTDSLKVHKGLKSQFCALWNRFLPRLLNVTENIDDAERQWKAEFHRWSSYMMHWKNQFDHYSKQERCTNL

| SMILES | iNOS EF (enrichment factor) [1] [%] | AChE EF (enrichment factor) [2] [%] | EC50 [3] [µM] | TE FRAP ([4]; isolated components) | EC50 [5] [µM] | EC50 [6] [µM] | other results |
| --- | --- | --- | --- | --- | --- | --- | --- |
| Oc1ccc2c(c1)CCc1cc(O)cc(O)c1-2 [2,4,7-Trihydroxy-9,10-dihydrophenanthrene] | 0.91 | 1.32 | – | – | – | – | – |
| Cc1cc(C(C)(C)C)c(O)c(C(C)(C)C)c1 [BHT, butylated hydroxytoluene, reference compound] | – | – | 90.8 ± 5.65 | 4355.95 ± 99.23 mM/g | 53.7 ± 1.48 | – | SC50 DPPH ([3]; solvent extracts): 36.64 ± 2.22 µg/mL; TE FRAP ([4]; solvent extracts): 4296.98 ± 48.40 mM/g; SC50 ABTS ([5]; solvent extracts): 46.83 ± 0.44 µg/mL |
| COc1cc(O)cc(CCc2cccc(O)c2)c1 [Batatasin III (3), batatasin III] | 27.18 | 31.87 | > 400 | 559.67 ± 51.49 ^c mM/g | 30.1 ± 1.7 | > 400 | TE FRAP ([4]; isolated components, listed as batatasin III): 559.67 ± 51.49 mM/g; IC50 [7, 11]: 51.3 ± 5.51 µM; IC50 [8, 12]: 258 ± 18.5 µM; IC50 [9]: 723 ± 53.5 µM |
| O=C(/C=C/c1ccc(O)c(O)c1)O[C@@H]1C[C@](O)(C(=O)O)C[C@@H](O)[C@H]1O [Chlorogenic acid, chlorogenic acid, reference compound] | – | – | – | – | – | – | IC50 [8, 12]: 236 ± 15.9 µM; IC50 ([8]; solvent extracts, read-out: IC50 AChE (converted)): 214 µM |
| COc1ccc2c(c1)CCc1cc(O)cc(OC)c1-2 [Coelonin] | 5.09 | 2.00 | – | – | – | – | – |
| O=c1cc(-c2ccc(O)c(O)c2)oc2cc(O[C@@H]3O[C@H](CO)[C@@H](O)[C@H](O)[C@H]3O)cc(O)c12 [Cynaroside, cynaroside, reference compound] | – | – | – | – | – | 50.6 ± 2.62 | SC50 Superoxide ([6]; solvent extracts): 112.76 ± 5.84 µg/mL |
| COc1cc(CCc2cc(OC)c(O)c(OC)c2)ccc1O [Dendrophenol (4), dendrophenol] | 65.11 | 59.48 | 11.6 ± 0.77 | 1686.53 ± 16.61 ^c mM/g | 7.64 ± 0.63 | > 400 | inhibition of iNOS expression [10]: 89.82%; TE FRAP ([4]; isolated components, listed as dendrophenol): 1686.53 ± 16.61 mM/g; IC50 [7, 11]: 14.3 ± 3.17 µM; IC50 [8, 12]: 165 ± 13.2 µM; IC50 [9]: 608 ± 48.2 µM |
| Oc1ccc(CCc2cc(O)cc(O)c2)cc1 [Dihydroresveratrol] | 0.62 | 0.08 | – | – | – | – | – |
| COc1ccc(CCc2cc(OC)c(OC)c(OC)c2)cc1O [Erianin] | 1.72 | 0.23 | – | – | – | – | – |
| COc1cc(O)cc(CCc2ccc(O)c(OC)c2)c1 [Gigantol (1), gigantol] | 44.84 | 54.60 | 35.2 ± 1.34 | 1483.20 ± 63.49 ^c mM/g | 12.2 ± 0.54 | > 400 | TE FRAP ([4]; isolated components, listed as gigantol): 1483.20 ± 63.49 mM/g; IC50 [7, 11]: 63.7 ± 11.4 µM; IC50 [8, 12]: 176 ± 19.1 µM; IC50 [9]: 470 ± 28.5 µM |
| COc1cc(O)cc2ccc3cccc(O)c3c12 [Moscatin (2), moscatin] | 88.99 | 66.31 | 26.7 ± 1.63 | 1396.40 ± 57.03 ^c mM/g | 10.3 ± 1.92 | > 400 | inhibition of iNOS expression [10]: 69.76%; TE FRAP ([4]; isolated components, listed as moscatin): 1396.40 ± 57.03 mM/g; IC50 ([7]; RAW264.7, read-out: NO Inhibition IC50): 23.5 ± 3.16 µM; IC50 [8]: 162 ± 16.5 µM; IC50 [9]: 478 ± 33.4 µM |
| COc1c(O)cc2ccc3cc(O)ccc3c2c1OC [Nudol] | 24.39 | 29.56 | – | – | – | – | – |
| O=c1c(O)c(-c2ccc(O)c(O)c2)oc2cc(O)cc(O)c12 [Quercetin, quercetin, reference compound] | – | – | – | – | – | – | IC50 [7, 11]: 23.1 ± 1.43 µM; IC50 ([7]; RAW264.7, solvent extracts, LPS-treated RAW 264.7 cells, read-out: NO Inhibition IC50): 6.98 ± 0.43 µg/mL |
| COc1cc(CCc2cc(O)cc(O)c2)ccc1O [Tristin] | 0.95 | 5.83 | – | – | – | – | – |
